Key:
5TGM1 cells [1] = assay: Invasion ability of 5TGM1 cells; type: cell-based, murine; settings: Carf 10 nM, Gal3M 10 ug/ml
5TGM1 cells [2] = assay: 5TGM1 syngeneic mice model of MM, serum IgG2b and SP17 ELISA; type: in vivo, C57BL/KaLwRij mice
Protocol: (§1) Testing Gal3M and carfilzomib in 5TGM1 syngeneic mice model. 5TGM1 cells were washed once with PBS (Sigma-Aldrich) and counted. The suspension containing […] 5TGM1 cells was injected I.V. into 20 C57BL/KaLwRij mice, 5 non-injected mice were used as negative controls. Tumor engraftment was assessed by testing IgG2b in the sera once a week. After 14 days the injected mice were randomly divided into four groups (five mice/group). Control group #1 was injected with PBS-only, group #2 received a dose of Gal3M (100 μg/mouse), group #3 received a dose of carfilzomib (112 μg/mouse) and group #4 received a dose of carfilzomib (112 μg/mouse) plus Gal3M (100 ug/mouse). Treatment effect on tumor growth was assessed by testing IgG2b and SP17 levels in the sera. Anesthetized animals were euthanized after 28 days and a postmortem examination was conducted on the whole animals and dissected organs.
ELISA for Sp17 and IgG2b. The levels of SP17 and IgG2b in mice serum were measured by direct ELISA as follows. Flat-bottom 96-well polycarbonate plates were coated with 100 μL/well sera diluted 1:25 in carbonate coating buffer (0.1 M Na2CO3, 0.1 M NaHCO3, pH 9.5) at 4° C. overnight. Then, after blocking with PBS supplemented with 1% W/V BSA for 1 hour at RT, plates were incubated with mouse anti-mouse Sp17 or IgG2b primary antibodies (1:500 in PBS, 100 μL/well, Santa Cruz Biotechnology) for 1 hour at RT. Then, plates were washed thrice with PBS with 0.025% V/V Tween-20 (200 μL/well) and incubated at RT with anti-mouse HRP-labeled secondary antibodies (1:10,000 in PBS; Abcam, Cambridge, Mass., USA) for 1 hour. The plates were washed thrice with PBS containing 0.025% V/V Tween-20 (200 μL/well), the TMB colorimetric substrate (Thermo Fisher Scientific, Waltham, Mass., USA) was added, and after 5 minutes the absorbance was measured (0.1 s) at 450 nm on a Victor 2 multimodal microplate reader (PerkinElmer, Billerica, Mass., USA). All samples were run in triplicates.

kidney and heart = assay: Kidney and heart toxicity in 5TGM1 mice (hematoxylin/eosin, activated caspase-3 IHC); settings: mouse, in vivo
Protocol: 5TGM1 cells were washed once with PBS (Sigma-Aldrich) and counted. […] Tumor engraftment was assessed by testing IgG2b in the sera once a week. After 14 days the injected mice were randomly divided into four groups (five mice/group). […] Treatment effect on tumor growth was assessed by testing IgG2b and SP17 levels in the sera. Anesthetized animals were euthanized after 28 days and a postmortem examination was conducted on the whole animals and dissected organs.
Immunohistochemistry analysis of markers of osteoclasts (anti-Cathepsin K antibody, Abcam), osteoblasts (anti-osteocalcin antibody, Abcam) and apoptosis (anti-activated caspase-3 antibody, Cell Signaling Technologies) were carried out in paraffin-embedded sections. Hearts and kidneys from treated and control mice were fixed in formalin, dehydrated in ethanol, embedded in paraffin, and then cut in 3.5 μm-thick sections. For bone sections, following formalin-fixation, decalcification with 10% EDTA (pH=8), and de-hydration in ethanol, femurs were included in paraffin, then cut in 5 μm-thick sections. […] Sections were rinsed twice in PBS+0.05% Tween-20, then endogenous peroxidase was blocked with 1% H2O2 in PBS for 15′. After rinsing three times with PBS+0.05% Tween-20 for 2′, slides were incubated with the secondary antibody (1:1000, Goat anti-Rabbit-HRP, Abcam) for 1 hour at RT. […]

[3] = MM patients; cited from earlier work
5TGM1 mice [4] = assay: Bone mass density analysis on x-ray images of 5TGM1 mice; type: in vivo; settings: compared with tumor-bearing untreated mice
Protocol: as §1
Bone mass density analysis. X-ray images were taken at the euthanasia day using IVIS Lumina Series III Pre-clinical In Vivo Imaging System (Perkin Elmer, USA) and bone mass density analysis (BMD) were performed as previously described (McManus M M, 2011).

5TGM1 mice [5] = assay: IHC for osteocalcin and Cathepsin K on decalcified bones; type: in vivo
Protocol: Immunohistochemistry. Immunohistochemistry analysis of markers of osteoclasts (anti-Cathepsin K antibody, Abcam), osteoblasts (anti-osteocalcin antibody, Abcam) and apoptosis (anti-activated caspase-3 antibody, Cell Signaling Technologies) were carried out in paraffin-embedded sections. Hearts and kidneys from treated and control mice were fixed in formalin, dehydrated in ethanol, embedded in paraffin, and then cut in 3.5 μm-thick sections. For bone sections, following formalin-fixation, decalcification with 10% EDTA (pH=8), and de-hydration in ethanol, femurs were included in paraffin, then cut in 5 μm-thick sections. After deparaffinization in xylene and re-hydration (100%-95%-70%-50% ethanol scale), slides were placed 10′ in distilled water, then incubated 20′ at 98° C. in Sodium Citrate Buffer (10 mM Sodium Citrate, 0.05% Tween 20, pH 6.0). After blocking with PBS+5% V/V FBS (2 hours at room temperature), the anti Cathepsin K, steocalcin and active Caspase3 antibodies were added (diluted 1:400 in PBS+1% BSA) and allowed to incubate overnight at 4° C. Sections were rinsed twice in PBS+0.05% Tween-20, then endogenous peroxidase was blocked with 1% H2O2 in PBS for 15′. After rinsing three times with PBS+0.05% Tween-20 for 2′, slides were incubated with the secondary antibody (1:1000, Goat anti-Rabbit-HRP, Abcam) for 1 hour at RT. […]

[6] = tested on: Raw264.7 cells co-cultured with 5TGM1 cells; assay: 5TGM1-driven osteoclastogenesis in vitro (TRAP staining); type: cell-based, murine; settings: co-culture with 5TGM1, 5 μM carfilzomib, 10 μM Gal3M, 7 days, vs control co-culture
Protocol: Osteoclast differentiation from RAW264.7 cells. For co-culture experiments Raw264.7 and 5TGM1 cells were seeded on a 6-well plate at a density of 1×10^4 cells/well (about 8×103 Raw264.7 and 2×103 […]) and cultured in presence/absence of carfilzomib, Gal3M or carfilzomib plus Gal3M. After 5-7 days cells were fixed on the culture plates with citrate-acetone solution and stained for TRAP (Sigma-Aldrich). Osteoclasts were identified and enumerated under light microscopy by the presence of ≧3 nuclei by using an Olympus microscope.

lung cancer (tumor) = assay: ELISA for AKAP-4 expression in tumor and lung tissue; type: in vivo, mice; settings: tumor and lung tissue lysates
Excerpt: The wells were coated with tumor and lung tissue lysates.

[7] = tested on: kidney, liver, lung, spleen, and heart; assay: Western Blot of apoptotic marker caspase-3 in organs of LLC mice; type: in vivo, mouse; settings: after 36 days
Excerpt: FIG. 14 is a Western Blot of the apoptopic marker […]-3 of cells in solid tumors with no treatment, XM alone, Carfilzomib alone, and Carfilzomib plus XM. After 36 days, the mice were sacrificed and organs collected for the Western Blot.

5TGM1 cells [8] = assay: Cell viability assay (ViaLight Plus); type: cell-based, murine; settings: Carf 10 nM, Gal3M 10 ug/ml
Protocol: Cell viability assay. 5TGM1 cells were treated for 48 hours with carfilzomib, Gal3M or the combination of these two agents, then cell viability was assessed by the ViaLight Plus Cell Proliferation and Cytotoxicity BioAssay Kit (Lonza) according to the directions of the manufacturer.

5TGM1 cells [9] = assay: Chemotaxis assay (Transwell); type: cell-based, murine
Protocol: Chemotaxis assay. 5TGM1 cells (4×10^5/well) were plated in 100 μL serum-free medium in the top chambers of 24-well Transwell™ inserts (Corning Costar, N.Y., USA) with 8-μm. Complete cell culture medium (600 μL) containing 10% FBS was added to the bottom chamber. Cells were treated for 4 hours with Gal3M (10 μg/ml), carfilzomib (10 nM) or carfilzomib plus Gal3M (same doses), and 5TGM1 cells in the lower chamber were fixed and counted.

LLC = assay: Murine lung cancer (LLC) study, measurement of tumor size; type: in vivo; settings: LLC mice, treatment from 14 days after injection, Carfilzomib 112 ug and 224 ug
Protocol: Measurement of tumor size. 14 days after injection of LLC, the mice were treated with XM and Carfilzomib (112 ug and 224 ug) for two (2) consecutive days three (3) times weekly.

Compound: CC(C)C[C@H](NC(=O)[C@H](CCc1ccccc1)NC(=O)CN1CCOCC1)C(=O)N[C@@H](Cc1ccccc1)C(=O)N[C@@H](CC(C)C)C(=O)[C@@]1(C)CO1 [Carfilzomib]
- invasion ability of 5TGM1 (in words) (5TGM1 cells [1]): significantly inhibited
- decrease in IgG2b levels (5TGM1 cells [2]; day 21, treated on day 14, compared to untreated MM bearing mice): 14%
- decrease in SP17 serum levels (5TGM1 cells [2]; day 28, compared to untreated mice): 37%
- decrease in IgG2b levels (5TGM1 cells [2]; day 28, treated on day 14, compared to untreated MM bearing mice): 36%
- histological analysis of kidney and heart: morphology and activated caspase-3 (kidney and heart; C57BL/KaLwRij, 28 days): associated with changes in cellular architecture and caspase-3 activation
- kidney toxicity (kidney and heart): kidney toxicity both at minimum and maximum dose
- treated patients discontinuing therapy because of renal and cardiac side effects [3]: approximately 15%
- BMD increase ROI2 (5TGM1 mice [4]; distal femur end): 19%
- BMD increase ROI1 (5TGM1 mice [4]; proximal femur end): 28%
- BMD increase ROI3 (5TGM1 mice [4]; tibia): 12%
- Cathepsin K-positive cells (osteoclasts marker) (5TGM1 mice [5]): decrease
- osteocalcin-positive cells (osteoblasts marker) (5TGM1 mice [5]): increase
- decrease in formation of TRAP+/multinucleated Raw264.7 cells [6]: 55%
- effect on lung cancer (AKAP-4 ELISA) (lung cancer (tumor)): have an effect on lung cancer (tumor)
- apoptosis (caspase-3 Western Blot) in mouse organs [7]: increased apoptosis
- growth of 5TGM1 (in words) (5TGM1 cells [8]): significantly inhibited
- chemotaxis of 5TGM1 (in words) (5TGM1 cells [9]; Carf 10 nM, Gal3M 10 ug/ml): significantly inhibited
- inhibition at 0.01 µM (5TGM1 cells [9]; Mus musculus, 5TGM1 cells, 4 hours, Gal3M 10 μg/ml, carfilzomib 10 nM, read-out: inhibition of the ability of 5TGM1 cells to migrate in response to chemotactic stimuli): 40%
- tumor growth (tumor size) (LLC): inhibited tumor growth

From US20160122407A1, “Galectin-3 Inhibitor (Gal-3M) is Associated with Additive Anti-Myeloma and Anti-Solid Tumor Effects, Decreased Osteoclastogenesis and Organ Protection when Used in Combination with Proteasome Inhibitors” (Texas Tech University System, priority 2014, published 2016)
